What was measured:
total testosterone = conditions: bicalutamide single agent therapy, humans; cited from earlier work
[1] = tested on: free testosterone concentration; conditions: after 24 weeks of daily 150 mg CASODEX alone; prostate cancer; cited from earlier work
[2] = tested on: testosterone, LH, oestradiol, FSH levels; conditions: cited from earlier work

Protocol for free testosterone levels: The following clinical trial was performed to determine the effect of the administration of CASODEX™ together with ARIMIDEX™ on free testosterone levels in healthy male volunteers over a 6 week period.
Dosage: The CASODEX™ was administered daily at a dose of 150 mg and the ARIMIDEX™ was administered daily at a dose of 1 mg. All treatments were in tablet form and taken once daily. Daily treatment with CASODEX™ was for 6 weeks, and with ARIMIDEX™ for the final 2 weeks of this period. The treatment periods were selected as the minimum time to attain steady-state plasma concentrations for the drugs.
Key Assessment: Free testosterone concentrations were measured during the course of the trial.

CC(O)(CS(=O)(=O)c1ccc(F)cc1)C(=O)Nc1ccc(C#N)c(C(F)(F)F)c1 (stereo not drawn) [CASODEX, 4′-cyano-α′,α′, α′-trifluoro-3-(4-fluorophenylsulphonyl)-2-hydroxy-2-methylpropiono-m-toluidide]
Change in basal level of total testosterone (total testosterone): approximate doubling
Increase in mean free testosterone concentration (free testosterone levels; CASODEX alone, end of the treatment period (4 weeks)): 58%
Free testosterone, ratio to Day 1 (free testosterone levels; Day 29, CASODEX 150 mg daily alone): 1.58
Free testosterone concentration, gmean (free testosterone levels; Day 29, CASODEX 150 mg daily alone (up to week 4), n=7): 0.076 nmol/1
Increase in mean free testosterone concentration [1]: 57%

CC/C(=C(\c1ccccc1)c1ccc(OCCN(C)C)cc1)c1ccccc1 [tamoxifen]
Effect on mean serum testosterone, oestradiol, LH levels, LH pulse frequency and amplitude ([2]; 13 normal men, 6 week period (Spijkstra et al)): An increase
Effect on basal serum levels of LH, oestradiol and testosterone ([2]; administration to men (Lewis-Jones et al)): elevates the basal serum levels
Effect on testosterone and LH ([2]; intake in adult men (Comhaire et al)): increase testosterone and LH
Effect on basal LH, FSH and testosterone levels ([2]; three months' treatment, normogonadotrophic oligozoospermic men (van Bergeijk et al)): stimulated basal LH, FSH and testosterone levels

Reference: patent US20030114519A1, “Pharmaceutical combination of bicalutamide and anastrozole for providing an anti-androgenic effect and aromatase inhibition” (priority 2002, published 2003)
